PMC4805204, “Robust Stimulation of W1282X-CFTR Channel Activity by a Combination of Allosteric Modulators” (PLoS ONE, 2016)

Biological target: T1, Δ1198-CFTR (Homo sapiens, UniProt P13569)
T1 construct: NBD2 deletion construct; V1198 replaced with a termination codon
Test: inside-out macropatch clamp of HEK-293T cells, […] curcumin, order of addition with VX-770
Type: cell-based

T1 sequence (P13569 1-1197, stated change not applied): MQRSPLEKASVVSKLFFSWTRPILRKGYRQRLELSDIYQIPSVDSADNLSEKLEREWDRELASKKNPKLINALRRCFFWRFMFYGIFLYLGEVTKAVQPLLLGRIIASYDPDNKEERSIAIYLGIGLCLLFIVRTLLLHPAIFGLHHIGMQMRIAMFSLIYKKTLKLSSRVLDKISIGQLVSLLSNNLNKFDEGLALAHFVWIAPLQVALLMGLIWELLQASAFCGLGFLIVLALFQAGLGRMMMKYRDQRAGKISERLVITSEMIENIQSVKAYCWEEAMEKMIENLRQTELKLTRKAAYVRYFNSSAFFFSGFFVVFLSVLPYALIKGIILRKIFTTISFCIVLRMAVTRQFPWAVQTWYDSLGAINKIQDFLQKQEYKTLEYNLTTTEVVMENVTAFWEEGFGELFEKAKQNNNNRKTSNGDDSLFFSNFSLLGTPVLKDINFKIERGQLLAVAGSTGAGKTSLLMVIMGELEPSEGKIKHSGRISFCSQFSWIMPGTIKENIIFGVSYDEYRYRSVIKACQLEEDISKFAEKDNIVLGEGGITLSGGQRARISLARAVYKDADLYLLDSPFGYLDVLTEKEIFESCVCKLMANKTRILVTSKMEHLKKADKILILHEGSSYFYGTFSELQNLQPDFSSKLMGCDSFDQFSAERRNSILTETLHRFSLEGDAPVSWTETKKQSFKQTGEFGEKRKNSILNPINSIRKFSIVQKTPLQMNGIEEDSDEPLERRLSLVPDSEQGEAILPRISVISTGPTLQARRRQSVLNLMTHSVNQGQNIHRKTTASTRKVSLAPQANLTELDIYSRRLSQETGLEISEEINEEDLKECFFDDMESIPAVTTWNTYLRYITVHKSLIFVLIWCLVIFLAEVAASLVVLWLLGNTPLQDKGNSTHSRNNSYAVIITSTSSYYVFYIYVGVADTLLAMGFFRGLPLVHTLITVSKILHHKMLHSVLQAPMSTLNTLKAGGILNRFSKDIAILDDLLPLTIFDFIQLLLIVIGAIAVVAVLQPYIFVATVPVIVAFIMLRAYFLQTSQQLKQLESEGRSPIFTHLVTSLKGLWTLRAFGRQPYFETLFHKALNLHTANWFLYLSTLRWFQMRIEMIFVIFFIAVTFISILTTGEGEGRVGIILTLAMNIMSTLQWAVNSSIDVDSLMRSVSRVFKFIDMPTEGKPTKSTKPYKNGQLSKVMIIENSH

**Q.** How did the “inside-out macropatch clamp of HEK-293T cells, 30 uM curcumin, order of addition” value turn out when `COc1cc(/C=C/C(=O)CC(=O)/C=C/c2ccc(O)c(OC)c2)ccc1O` [curcumin] was run?
**A.** Mean percent stimulation of W1282X-CFTR or Δ1198-CFTR current by each compound alone
